Key:
PhGal4E_1 = target: T1, PhGal4E_1 (Pyrococcus horikoshii, UniProt O73960); assay: X-ray crystal structure, […] Å, crystal soaking; format: binding; conditions: soaked 1-3 min with 10 mM GDP-L-Fuc; active site, NAD+ bound
T1 sequence (O73960 1-318): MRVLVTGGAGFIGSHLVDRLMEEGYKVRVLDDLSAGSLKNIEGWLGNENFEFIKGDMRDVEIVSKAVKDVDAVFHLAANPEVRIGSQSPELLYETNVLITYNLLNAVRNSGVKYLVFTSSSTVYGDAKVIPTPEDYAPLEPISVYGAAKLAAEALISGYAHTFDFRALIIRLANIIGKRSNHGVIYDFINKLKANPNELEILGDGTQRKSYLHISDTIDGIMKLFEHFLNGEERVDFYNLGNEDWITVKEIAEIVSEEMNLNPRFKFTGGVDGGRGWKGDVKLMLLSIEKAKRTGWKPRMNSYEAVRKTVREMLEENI

[1] = target: PhGal4E_1 variant Y145F (Pyrococcus horikoshii); assay: crystal structure

**Q.** Which “X-ray crystal structure, 2.4 Å, crystal soaking” value (PhGal4E_1) does the source give for `C[C@@H]1O[C@H](OP(=O)(O)OP(=O)(O)OC[C@H]2O[C@@H](n3cnc4c(=O)[nH]c(N)nc43)[C@H](O)[C@@H]2O)[C@@H](O)[C@H](O)[C@@H]1O` [GDP-L-Fuc] here?
**A.** NAD^+ cofactor and GDP-L-Fuc bound in the active site of the WT (PDB ID: 8RDH

**Q.** Which stoichiometry N [1] does the source give for PhGal4E_1 variant Y145F (enzyme) here?
**A.** 2

— paper PMC12171764 (Computational and Structural Biotechnology Journal, 2025)
